# Laboratory results reported in patent US7435716B2, “Compounds pharmaceutical compositions and methods for treatment of bacteremia and/or septicemia” (Ramot At Tel Aviv University Ltd., priority 2001, dated 2008).
# pIC50: −log10 of the molar value. Read-outs that look alike come from different tables or passages of the source.
# How the values were obtained:
# [1] = Lam et al., 1986; cited from earlier work
# Klebsiella pneumonia [2] = assay: Sensitization assay (fold decrease in MIC of novobiocin); type: cell-based; conditions: sensitization towards novobiocin, peptide 50 μg/ml, relative to PMBN
# Method: (§1) Bacterial suspension (10 μL, 1×10^5 CFU) was inoculated into microtiter plate wells containing 100 μL of a serial two-fold dilution (1000-0.5 μg/mL) of novobiocin (Sigma) in ISB. To each well, 10 μL of the test peptide was added to a final concentration of 50 μg/mL. The fold decrease in MIC for novobiocin comparing wells with and without test peptides was calculated and designated as sensitizing activity. The relative sensitizing activity of the test peptide was calculated as percent of the sensitizing activity of 50 μg/mL pPMBN.
# Escherichia coli = assay: as above; type: cell-based; conditions: sensitization towards novobiocin, peptide 50 μg/ml, relative to PMBN
# Method: as §1
# [3] = cited from earlier work
# [4] = cited from earlier work; remark: listed apart in the source
# [5] = test system: clinical isolates of gram-negative bacteria; conditions: previous studies (Ofek et al, 1994); cited from earlier work
# E. coli LPS = assay: Displacement assay of dansyl-PMBN from LPS; type: binding; conditions: for pIC50: inhibits 50% of initial fluorescence of 0.55 μM Dansyl-PMBN bound to E. coli-LPS, read-out: Peptides IC50; for ability to displace Dansyl-PMBN from LPS / affinity to LPS, in words: comparison with PMBN or polymyxin B
# Method: To determine the binding of a given peptide to LPS, a displacement assay was performed in which 5 or 10 μl (1×10^−5-1×10^−3 M) of the tested peptide at desired concentrations were added at 5 minutes interval to a pre-equilibrated mixture of LPS solution (2 mL, 3 μg/mL, ˜2×10^−7 M) in HEPES buffer (5 mM, pH 7.2) and dansyl-PMBN (0.55 μM). The fluorescence intensity (excitation wavelength of 340 nm and emission wavelength of 485 nm) was recorded after each time interval. Each experiment was repeated 2-3 times. The percent inhibition of fluorescence intensity was plotted as a function of the peptide concentration from which the concentration required for maximal (Imax) and 50% (IC50) displacement of the dansyl-PMBN from LPS was derived.
# Values were calculated as peptide's potency, at a concentration of 50 μg/ml, relatively to PMBN. IC50 values represent peptide concentrations that inhibits 50% of the initial fluorescence of 0.55 μM Dansyl-PMBN bound to E. coli-LPS.
# [6] = test system: erythromycin resistant Klebsiella pneumoniae; assay: Mice protection assay; type: in vivo; conditions: for protection of mice, in words: with erythromycin; for Mice survival (Dead/Total): intraperitoneally
# Method: Sublethal dose of Klebsiella pneumoniae (2×10^5 cfu) were injected intreperitonially to mice. […] After additional 24 hours, the mice were treated once with half dose. Survival was followed daily for 7 days.
# Polymyxin octapeptide conjugated with the tripeptide formyl Met-Leu-Phe (fMLF, SEQ ID NO:1) was assayed in combination with erythromycin for the ability to provide protection against Klebsiella pneumoniae infection in an in vivo infection model previously described (Ofek et al., 1994).
# [7] = test system: Pseudomonas aeruginosa clinical isolates; assay: Sensitizing activity for clinical isolates (MIC of antibiotic); type: cell-based; conditions: antibiotic alone
# Method: (§2) Experiments for the determining the sensitizing activity of the conjugates were performed similar to those described for PMBN in previous studies (Ofek et al 1994). All conjugates were teted at 20 μg/ml to determine the MIC of the indicated antibiotic. Antibiotics were purchased from Sigma (novobiocin, erythromycin and gentamycin), Bristol (Amikin), Galaxo (Zinacef), and B.R.L (augmentin). Numbers in brackets indicate number of is strains tested.
# Klebsiella pneumonia [8] = assay: Minimal inhibitory concentration (MIC) assay; type: cell-based; conditions: compared with PMBN
# Method: (§3) Gram-negative bacteria were grown on nutrient agar plates (Difco Laboratories, Detroit, Mich.) and kept at 4° C. An overnight culture in isotonic sensitest broth (ISB, Oxoid) was adjusted to 1×10^5 CFU/mL and inoculated into microtiter plate wells containing each 100 μL of a serial twofold dilution (1000-0.5 μg/mL) of the tested antibiotics in ISB. MIC was defined as the lowest concentration at which there was no visible bacterial growth after incubation for 20 hours at 37° C. The results are reported for 4-8 separate tests that varied by no more than one dilution.
# E. coli = assay: Minimal inhibitory concentration (MIC) assay; type: cell-based; conditions: compared with PMBN
# Method: as §3
# Gram-negative bacteria [9] = assay: Antimicrobial activity of the peptide per se (MIC assay); type: cell-based; conditions: peptide alone
# Method: as §3
# [10] = test system: phagocytosis of E. coli by human monocytes-derived macrophages; assay: Phagocytosis activity assay; type: cell-based
# Method: (§4) The conjugates and the control peptides were incubated with E. coli (10^6 CFU/mL) prior to the contact with human monocytes-derived macrophages monolayer. After 30 minutes of phagocyte-bacteria encounter, the phagocytes were washed, lysed and the released bacteria allowed to grow for 4.5 hours at 37° C. The amount of trapped bacteria were calculated as a function of absorbency at 600 nm.
# as §4, with “nm. fMLF by itself (10 μM) enhanced by 2.5 fold the phagocytosis comparing to the control (FIG. 2). […] Tuftsin-PMBN enhanced the phagocytosis by 3 folds comparing to the control.” for “nm.”
# Gram-negative bacteria [11] = assay: Sensitization assay, bacterium not specified at the place; type: cell-based; conditions: comparison with PMBN
# Method: as §1
# [12] = test system: Klebsiella pneumoniae clinical isolates; assay: Sensitizing activity for clinical isolates (MIC of antibiotic); type: cell-based; conditions: antibiotic alone
# Method: as §2
molecule,measurement,setting,value
Thr-Dab-cyclo[Dab-Dab-dPhe-Leu-Dab-Dab-Thr] [PMBN],dose that was not lethal (doses as high as),[1],200 mg/Kg body weight
same,peptides potency (%) Klebsiella pneumonia,Klebsiella pneumonia [2],100%
same,peptides potency (%) Escherichia coli,Escherichia coli,100%
same,"neuromuscular blockade, neurotoxic or nephrotoxic effects","[3]; dog, in vivo, iv, 3 mg/kg",did not cause neuromuscular blockade and neurotoxic or nephrotoxic effects
same,"neuromuscular blockade, neurotoxic or nephrotoxic effects","[4]; rat, in vivo, iv, 3 mg/kg",did not cause neuromuscular blockade and neurotoxic or nephrotoxic effects
same,clinical isolates rendered more susceptible to novobiocin,[5],53 out of 53
same,pIC50,E. coli LPS,5.35
same,"protection of mice, in words",[6],partial protection
CO[C@@H]1[C@@H](OC(N)=O)[C@@H](O)[C@H](Oc2ccc3c(O)c(NC(=O)c4ccc(O)c(CC=C(C)C)c4)c(=O)oc3c2C)OC1(C)C [Novobiocin],Range of MIC,[7],62 to 1000 µg/mL
Thr-Lys-Pro-Arg-Thr-Dab-cyclo[Dab-Dab-dPhe-Leu-Dab-Dab-Thr] [Tuftsin-PMBN],peptides potency (%) Klebsiella pneumonia,Klebsiella pneumonia [2],268%
same,peptides potency (%) Escherichia coli,Escherichia coli,863%
same,effect of the added peptide on MIC of PMBN towards Klebsiella pneumonia,Klebsiella pneumonia [8],did not significantly reduce
same,effect of the added peptide on MIC of PMBN towards E. coli,E. coli,did not significantly reduce
same,antimicrobial activity per se,Gram-negative bacteria [9],did not have antimicrobial activity by it self
same,antimicrobial activity per se,Gram-negative bacteria [9]; listed as PMBN-tuftsin,no antimicrobial activity per se
same,enhancement of phagocytosis comparing to the control,[10]; concentration not given,3 folds
same,"ability to displace Dansyl-PMBN from LPS / affinity to LPS, in words",E. coli LPS,much higher potency then PMBN
same,pIC50,E. coli LPS,6.15
same,"sensitizing activity, in words",Gram-negative bacteria [11],increased ability to enhance the permeability of the bacterial outer membrane to novobiocin
Formyl-Met-Leu-Phe-Thr-Dab-cyclo[Dab-Dab-dPhe-Leu-Dab-Dab-Thr] [fMLF-PMBN],peptides potency (%) Klebsiella pneumonia,Klebsiella pneumonia [2],475%
same,peptides potency (%) Escherichia coli,Escherichia coli,783%
same,effect of the added peptide on MIC of PMBN towards Klebsiella pneumonia,Klebsiella pneumonia [8],did not significantly reduce
same,effect of the added peptide on MIC of PMBN towards E. coli,E. coli,did not significantly reduce
same,antimicrobial activity per se,Gram-negative bacteria [9],did not have antimicrobial activity by it self
same,antimicrobial activity per se,Gram-negative bacteria [9]; listed as PMBN-fMLF,no antimicrobial activity per se
same,"enhancement of phagocytosis, in words",[10]; 1 μM,enhanced the phagocytosis of the bacteria
same,"ability to displace Dansyl-PMBN from LPS / affinity to LPS, in words",E. coli LPS,even lower than PMBN
same,pIC50,E. coli LPS,4.92
same,"protection of mice, in words",[6],Almost complete protection
"formyl-Met-Leu-Phe [fMLF, reference compound]",enhancement of phagocytosis comparing to the control,[10]; 10 μM,2.5 fold
Polymyxin B,"neuromuscular blockade, neurotoxic or nephrotoxic effects","[3]; dogs, 3 mg/Kg body weight intravenously over a long period",all of which were observed
same,"neuromuscular blockade, neurotoxic or nephrotoxic effects","[4]; rats, 3 mg/Kg body weight intravenously over a long period",all of which were observed
same,pIC50,E. coli LPS,6.30
same,Mice survival (Dead/Total),"[6]; 1.5 + 1.5 + 1.5 mg/Kg, no erythromycin",3/18
CC[C@H]1OC(=O)[C@H](C)[C@@H](O[C@H]2C[C@@](C)(OC)[C@@H](O)[C@H](C)O2)[C@H](C)[C@@H](O[C@@H]2O[C@H](C)C[C@H](N(C)C)[C@H]2O)[C@](C)(O)C[C@@H](C)C(=O)[C@H](C)[C@@H](O)[C@]1(C)O [Erythromycin],Range of MIC,[12],100 to 200 µg/mL
same,Range of MIC,[7],200 µg/mL
same,Mice survival (Dead/Total),[6]; erythromycin 10 mg/Kg alone,18/18
same,"protection of mice, in words",[6],all 18 mice who received erythromycin only died
Gentamycin,Range of MIC,[7],1000 µg/mL
